Counter-ions that a name gives are not always drawn.
tested on: 5HT uptake; test: Inhibition of 5HT uptake in vitro (synaptosomal uptake of 3H-serotonin, rat cortical synaptosomes); assay type: biochemical, rat (male Sprague-Dawley); settings: 50 nM 3H-5HT, cortical synaptosomes, 37° C., 5 min
Description: This general procedure is set forth by Wong et al., in Drug Development Research 6:397-403 (1985).
Male Sprague-Dawley rats (110-150 g) from Harlan Industries (Cumberland, Ind.) were fed Purina Chow ad libitum for at least 3 days before being used in the studies. Rats were killed by decapitation. Whole brains were removed and dissected. Cerebral cortex was homogenized in 9 volumes of a medium containing 0.32M sucrose and 10 mM glucose. Crude synaptosomal preparations were isolated after differential centrifugation at 1,000 g for 10 min. and 17,000 g for 28 min. The final pellets were suspended in the same medium and kept in ice until use within the same day.
Synaptosomal uptake of ^3 H-serotonin(^3 H-5-hydroxytryptamine, ^3 H-5HT) was determined as follows. Cortical synaptosomes (equivalent to 1 mg of protein) were incubated at 37° C. for 5 min in 1 ml of Krebs-bicarbonate medium containing also 10 mM glucose, 0.1 mM iproniazid, 1 mM ascorbic acid, 0.17 mM EDTA and 50 nM ^3 H-5HT The reaction mixture was immediately diluted with 2 ml of ice-chilled Krebs-bicarbonatebuffer and filtered under vacuum with a cell harvester (Brandel, Gaithersburg, Md.). Filters were rinsed twice with approximately 5 ml of ice-chilled 0.9% saline and were transferred to a counting vial containing 10 ml of scintillation fluid (PCS, Amersham, Arlington Heights, Ill.). Radioactivity was measured by a liquid scintillation spectrophotometer. Accumulation of ^3 H-5HT at 4° C. represented the background and was subtracted from all samples.
The numbers in parentheses represent percent inhibition at 1000 nM.

Which IC50 does the source give for `CN(C)C(CCOc1cccc2ccccc12)c1ccccc1` (single isomer, unassigned) [Example 36, (+)-N,N-Dimethyl-1-phenyl-3-(1-naphthalenyloxy)propanamine (+)-tartrate] here?
The IC50 was 10 nM.

How did the IC50 turn out when `CN(C)C(CCOc1cccc2ccccc12)c1ccccc1` (single isomer, unassigned) [Example 37, (-)-N,N-Dimethyl-1-phenyl-3-(1-naphthalenyloxy)propanamine (-)-tartrate] was run?
The IC50 was 35 nM.

`Cc1ccc(OCCC(N)c2ccccc2)c2ccccc12` (stereo not shown) [Example 1, 1-Phenyl-3-(4-methyl-1-naphthalenyloxy)propanamine oxalate] was tested. Which IC50 did it give?
Its IC50 is 90 nM.

With `Cc1ccc(OCCC(c2ccccc2)N(C)C)c2ccccc12` (stereo not shown) [Example 2, N,N-Dimethyl-1-phenyl-3-(4-methyl-1-naphthalenyloxy)propanamine oxalate] as the compound, how does the IC50 read?
Its IC50 is 25 nM.

For `CNC(CCOc1ccc(C)c2ccccc12)c1ccccc1` (stereo not shown) [Example 3, N-Methyl-1-phenyl-3-(4-methyl-1-naphthalenyloxy)propanamine oxalate], which IC50 is on record?
Its IC50 is 37 nM.

For `COc1ccc(OCCC(c2ccccc2)N(C)C)c2ccccc12` (stereo not shown) [Example 5, N,N-Dimethyl-1-phenyl-3-(4-methoxy-1-naphthalenyloxy)propanamine oxalate], which IC50 is on record?
Its IC50 is 210 nM.

`NC(CCOc1cccc2ccccc12)c1ccccc1C(F)(F)F` (stereo not shown) [Example 6, 1-[2-(Trifluoromethyl)phenyl]-3-(1-naphthalenyloxy)propanamine oxalate] was tested. Which IC50 did it give?
Its IC50 is 180 nM.

With `CN(C)C(CCOc1cccc2ccccc12)c1ccccc1C(F)(F)F` (stereo not shown) [Example 7, N,N-Dimethyl-1-[2-(trifluoromethyl)phenyl]-3-(1-naphthalenyloxy)propanamineoxalate] as the compound, how does the IC50 read?
Its IC50 is 260 nM.

For `CN(C)C(CCOc1cccc2ccccc12)c1cccc(C(F)(F)F)c1` (stereo not shown) [Example 9, N,N-Dimethyl-1-[3-(trifluoromethyl)phenyl]-3-(1-naphthalenyloxy)propanamineoxlate], which IC50 is on record?
The IC50 was 500 nM.

How did the IC50 turn out when `NC(CCOc1cccc2ccccc12)c1ccccc1Cl` (stereo not shown) [Example 10, 1-(2-Chlorophenyl)-3-(1-naphthalenyloxy)propanamine oxalate] was run?
The IC50 was 76 nM.

`CN(C)C(CCOc1cccc2ccccc12)c1ccccc1Cl` (stereo not shown) [Example 11, N,N-Dimethyl-1-(2-chlorophenyl)-3-(1-naphthalenyloxy)propanamine oxalate] was tested. Which IC50 did it give?
The IC50 was 33 nM.

With `NC(CCOc1cccc2ccccc12)c1cccc(Cl)c1` (stereo not shown) [Example 12, 1-(3-Chlorophenyl)-3-(1-naphthalenyloxy)propanamine oxalate] as the compound, how does the IC50 read?
The IC50 was 150 nM.

`CN(C)C(CCOc1cccc2ccccc12)c1cccc(Cl)c1` (stereo not shown) [Example 13, N,N-Dimethyl-1-(3-chlorophenyl)-3-(1-naphthalenyloxy)propanamine oxalate] was tested. Which IC50 did it give?
The IC50 was 72 nM.

With `NC(CCOc1cccc2ccccc12)c1ccc(Cl)cc1` (stereo not shown) [Example 14, 1-(4-Chlorophenyl)-3-(1-naphthalenyloxy)propanamine oxalate] as the compound, how does the IC50 read?
Its IC50 is 400 nM.

Which IC50 does the source give for `CN(C)C(CCOc1cccc2ccccc12)c1ccc(Cl)cc1` (stereo not shown) [Example 15, N,N-Dimethyl-1-(4-chlorophenyl)-3-(1-naphthalenyloxy)propanamine oxalate] here?
Its IC50 is 110 nM.

Which IC50 does the source give for `COc1ccc(C(N)CCOc2cccc3ccccc23)cc1` (stereo not shown) [Example 16, 1-(4-Methoxyphenyl)-3-(1-naphthalenyloxy)propanamine oxalate] here?
Its IC50 is 100 nM.

For `COc1ccc(C(CCOc2cccc3ccccc23)N(C)C)cc1` (stereo not shown) [Example 17, N,N-Dimethyl-1-(4-methoxyphenyl)-3-(1-naphthalenyloxy)propanamine oxalate], which IC50 is on record?
Its IC50 is 32 nM.

With `COc1cccc(C(N)CCOc2cccc3ccccc23)c1` (stereo not shown) [Example 18, 1-(3-Methoxyphenyl)-3-(1-naphthalenyloxy)propanamine hydrochloride] as the compound, how does the IC50 read?
The IC50 was 84 nM.

Which IC50 does the source give for `COc1cccc(C(CCOc2cccc3ccccc23)N(C)C)c1` (stereo not shown) [Example 19, N,N-Dimethyl-1-(3-methoxyphenyl)-3-(1-naphthalenyloxy)propanamine oxalate] here?
Its IC50 is 29 nM.

For `COc1ccccc1C(CCOc1cccc2ccccc12)N(C)C` (stereo not shown) [Example 21, N,N-Dimethyl-1-(2-methoxyphenyl)-3-(1-naphthalenyloxy)propanamine oxalate], which IC50 is on record?
The IC50 was 16 nM.

`CNC(CCOc1cccc2ccccc12)c1ccc2c(c1)OCO2` (stereo not shown) [Example 24, oxalate] was tested. Which IC50 did it give?
The IC50 was 47 nM.

Which IC50 does the source give for `CN(C)C(CCOc1cccc2ccccc12)c1ccc(F)cc1` (stereo not shown) [Example 25, N,N-Dimethyl-1-(4-fluorophenyl)-3-(1-naphthalenyloxy)propanamine oxalate] here?
The IC50 was 50 nM.

How did the IC50 turn out when `Cc1ccc(C(CCOc2cccc3ccccc23)N(C)C)cc1` (stereo not shown) [Example 26, N,N-Dimethyl-1-(4-methylphenyl)-3-(1-naphthalenyloxy)propanamine oxalate] was run?
The IC50 was 80 nM.

Which IC50 does the source give for `CN(C)C(CCOc1cccc2ccccc12)c1ccccc1` (stereo not shown) [Example 27, N,N-Dimethyl-1-phenyl-3-(1-naphthalenyloxy)propanamine oxalate] here?
Its IC50 is 10 nM.

With `CN(C)C(CCOc1ccc(C(F)(F)F)c2ccccc12)c1ccccc1` (stereo not shown) [Example 29, N,N-Dimethyl-1-phenyl-3-[4-(trifluoromethyl)-1-naphthalenyloxy)propanamine oxalate] as the compound, how does the IC50 read?
The IC50 was 800 nM.

How did the IC50 turn out when `Cc1ccccc1C(CCOc1cccc2ccccc12)N(C)C` (stereo not shown) [Example 30, N,N-Dimethyl-1-(2-methylphenyl)-3-(1-naphthalenyloxy)propanamine oxalate] was run?
The IC50 was 10 nM.

`CN(C)C(CCOc1cccc2ccccc12)c1ccc(C(F)(F)F)cc1` (stereo not shown) [Example 31, N,N-Dimethyl-1-[4-(trifluoromethyl)phenyl]-3-(1-naphthalenyloxy)propanamineoxalate] was tested. Which IC50 did it give?
The IC50 was 195 nM.

`Cc1cccc(C(CCOc2cccc3ccccc23)N(C)C)c1` (stereo not shown) [Example 32, N,N-Dimethyl-1-(3-methylphenyl)-3-(1-naphthalenyloxy)propanamine oxalate] was tested. Which IC50 did it give?
The IC50 was 13 nM.

With `CNC(CCOc1cccc2ccccc12)c1ccccc1` (stereo not shown) [Example 33, N-Methyl-1-phenyl-3-(1-naphthalenyloxy)propanamine oxalate] as the compound, how does the IC50 read?
Its IC50 is 35 nM.

`CN(C)C(CCOc1ccc(Cl)c2ccccc12)c1ccccc1` (stereo not shown) [Example 34, N,N-Dimethyl-1-phenyl-3-(4-chloro-1-naphthalenyloxy)propanamine oxalate] was tested. Which IC50 did it give?
The IC50 was 88 nM.

How did the IC50 turn out when `NC(CCOc1cccc2ccccc12)c1ccccc1` (stereo not shown) [Example 35, 1-Phenyl-3-(1-naphthalenyloxy)propanamine oxalate] was run?
The IC50 was 80 nM.

same assay, conditions: at 1000 nM; numbers in parentheses; 50 nM 3H-5HT, 37° C., 5 min

`COc1ccc(OCCC(N)c2ccccc2)c2ccccc12` (stereo not shown) [Example 4, 1-Phenyl-3-(4-methoxy-1-naphthalenyloxy)propanamine oxalate] was tested. Which “percent inhibition at 1000 nM” value did it give?
The value was 39%.

`NC(CCOc1cccc2ccccc12)c1cccc(C(F)(F)F)c1` (stereo not shown) [Example 8, 1-[3-(Trifluoromethyl)phenyl]-3-(1-naphthalenyloxy)propanamine oxalate] was tested. Which “percent inhibition at 1000 nM” value did it give?
The value was 43%.

For `COc1ccccc1C(N)CCOc1cccc2ccccc12` (stereo not shown) [Example 20, 1-(2-Methoxyphenyl)-3-(1-naphthalenyloxy)propanamine oxalate], which “percent inhibition at 1000 nM” value is on record?
The value was 25%.

— patent publication US5135947A, “1-phenyl-3-naphthalenyloxypropanamines and their use as selective serotonin reuptake inhibitors” (Eli Lilly and Company, priority 1990, dated 1992)
